Data published in patent publication US20220002551A1, “A NOVEL CLASS OF PIGMENTS IN ASPERGILLUS” (DANMARKS TEKNISKE UNIVERSITET, priority 2019, published 2022).

Test: Color intensity E1% of cavernamine-L powder and its formulation
Format: physicochemical
Method: The dilution mixture was adjusted to pH 5 with Sodium Hydroxide 2 M. The cavernamine-L powder was added to the dilution mixture in a concentration of 0.5 g/L and mixed for 5 minutes. The colored solution was then frozen prior to lyophilzation. Diluted red powder was recovered and the color intensity of the formulated cavernamine-L was detected to be E1% (at 492 nm) of 2.2, compared to E1% (at 492 nm) of 220 of original pure cavernamine-L powder.

## C/C=C\C1=CC2=CC3=C(C(=O)C(C)CC)C(=O)OC3(C)C(=O)C2=CN1C(CC(C)C)C(=O)O (stereo not drawn) [cis-cavernamine-L]
  color intensity E1% (at 492 nm): 220
